Results on 32 molecules are retold here after US8071612B2, “6-alkenyl and 6-phenylalkyl substituted 2-quinolinones and 2-quinoxalinones as poly(ADP-ribose) polymerase inhibitors” (Janssen Pharmaceutica, NV, priority 2004, dated 2011).

Test [1] has as its target T1, PARP-1 enzyme (Homo sapiens, UniProt P09874).
T1 construct: made in house
Description: In vitro Scintillation Proximity Assay (SPA) for PARP-1 inhibitory activity. The test is classed as biochemical. The note with it: nicked DNA activated PARP-1, [3H]-NAD+, biotinylated histones; read-out: In vitro SPA pIC50 (converted). Here is the method: Compounds of the present invention were tested in an in vitro assay based on SPA technology (proprietary to Amersham Pharmacia Biotech).
In principle, the assay relies upon the well established SPA technology for the detection of poly(ADP-ribosyl)ation of biotinylated target proteins, i.e histones. This ribosylation is induced using nicked DNA activated PARP-1 enzyme and [^3H]-nicotinamide adenine dinucleotide ([^3H]-NAD^+) as ADP-ribosyl donor.
As inducer of PARP-1 enzyme activity, nicked DNA was prepared. For this, 25 mg of DNA (supplier: Sigma) was dissolved in 25 ml DNAse buffer (10 mM Tris-HCl, pH 7.4; 0.5 mg/ml Bovine Serum Albumine (BSA); 5 mM MgCl2.6H2O and 1 mM KCl) to which 50 μl DNAse solution (1 mg/ml in 0.15 M NaCl) was added. After an incubation of 90 min. at 37° C., the reaction was terminated by adding 1.45 g NaCl, followed by a further incubation at 58° C. for 15 min. The reaction mixture was cooled on ice and dialysed at 4° C. for respectively 1.5 and 2 hours against 1.5 l of 0.2 M KCl, and twice against 1.5 l of 0.01 M KCl for 1.5 and 2 h respectively. The mixture was aliquoted and stored at −20° C. Histones (1 mg/ml, type II-A, supplier: Sigma) were biotinylated using the biotinylation kit of Amersham and stored aliquoted at −20° C. A stock solution of 100 mg/ml SPA poly(vinyl toluene) (PVT) beads (supplier: Amersham) was made in PBS. A stock solution of [^3]H-NAD^+ was made by adding 120 μl of [^3H]-NAD^+ (0.1 mCi/ml, supplier: NEN) to 6 ml incubation buffer (50 mM Tris/HCl, pH 8; 0.2 mM DTT; 4 mM MgCl2). A solution of 4 mM NAD^+ (supplier: Roche) was made in incubation buffer (from a 100 mM stock solution in water stored at −20° C.). The PARP-1 enzyme was produced using art known techniques, i.e. cloning and expression of the protein starting from human liver cDNA. Information concerning the used protein sequence of the PARP-1 enzyme including literature references can be found in the Swiss-Prot database under primary accession number P09874. Biotinylated histones and PVT-SPA beads were mixed and pre-incubated for 30 min. at room temperature. PARP-1 enzyme (concentration was lot dependent) was mixed with the nicked DNA and the mixture was pre-incubated for 30 min. at 4° C. Equal parts of this histones/PVT-SPA beads solution and PARP-1 enzyme/DNA solution were mixed and 75 μl of this mixture together with 1 μl of compound in DMSO and 25 μl of [^3H]-NAD^+ was added per well into a 96-well microtiterplate. The final concentrations in the incubation mixture were 2 μg/ml for the biotinylated histones, 2 mg/ml for the PVT-SPA beads, 2 μg/ml for the nicked DNA and between 5-10 μg/ml for the PARP-1 enzyme. After incubation of the mixture for 15 min. at room temperature, the reaction was terminated by adding 100 μl of 4 mM NAD^+ in incubation buffer (final concentration 2 mM) and plates were mixed.
The beads were allowed to sediment for at least 15 min. and plates transferred to a TopCountNXT™ (Packard) for scintillation counting, values were expressed as counts per minute (cpm). For each experiment, controls (containing PARP-1 enzyme and DMSO without compound), a blank incubation (containing DMSO but no PARP-1 enzyme or compound) and samples (containing PARP-1 enzyme and compound dissolved in DMSO) were run in parallel. All compounds tested were dissolved and eventually further diluted in DMSO. In first instance, compounds were tested at a concentration of 10^−5 M or 10^−6M. […] In each test, the blank value was subtracted from both the control and the sample values. The control sample represented maximal PARP-1 enzyme activity. For each sample, the amount of cpm was expressed as a percentage of the mean cpm value of the controls. When appropriate, IC50-values (concentration of the drug, needed to reduce the PARP-1 enzyme activity to 50% of the control) were computed using linear interpolation between the experimental points just above and below the 50% level. […]

Test [2] addresses T1, PARP-1 enzyme. The test is described as follows: In vitro filtration assay for PARP-1 inhibitory activity. The test is classed as biochemical. As to conditions: nicked DNA activated PARP-1, [32P]-NAD, histones; read-out: In vitro filtration assay pIC50 (converted). The protocol:
Compounds of the present invention were tested in an in vitro filtration assay assessing PARP-1 activity (triggered in the presence of nicked DNA) by means of its histone poly (ADP-ribosyl)ation activity using [^32P]-NAD as ADP-ribosyl donor. The radioactive ribosylated histones were precipitated by trichloroacetic acid (TCA) in 96-well filterplates and the incorporated [^32P] measured using a scintillation counter
A mixture of histones (stock solution: 5 mg/ml in H2O), NAD (stock solution: 100 mM in H2O), and [^32P]-NAD^+ in incubation buffer (50 mM Tris/HCl, pH 8; 0.2 mM DTT; 4 mM MgCl2) was made. A mixture of the PARP-1 enzyme (5-10 μg/ml) and nicked DNA was also made. The nicked DNA was prepared as described in the in vitro SPA for PARP-1 inhibitory activity. Seventy-five μl of the PARP-1 enzyme/DNA mixture together with 1 μl of compound in DMSO and 25 μl of histones-NAD^+/[^32P]-NAD^+ mixture was added per well of a 96-well filterplate (0.45 μm, supplier Millipore). The final concentrations in the incubation mixture were 2 μg/ml for the histones, 0.1 mM for the NAD^+, […] (0.5 μC) for the [^32P]-NAD^+ and 2 μg/ml for the nicked DNA. Plates were incubated for 15 min. at room temperature and the reaction was terminated by the addition of 10 μl ice cold 100% TCA followed by the addition of 10 μl ice-cold BSA solution (1% in H2O). The protein fraction was allowed to precipitate for 10 min. at 4° C. and plates were vacuum filtered. The plates were subsequently washed with, for each well, 1 ml of 10% ice cold TCA, 1 ml of 5% ice cold TCA and 1 ml of 5% TCA at room temperature. Finally 100 μl of scintillation solution (Microscint 40, Packard) was added to each well and the plates were transferred to a TopCountNXT™ (supplier: Packard) for scintillation counting and values were expressed as counts per minute (cpm). For each experiment, controls (containing PARP-1 enzyme and DMSO without compound), a blank incubation (containing DMSO but no PARP-1 enzyme or compound) and samples (containing PARP-1 enzyme and compound dissolved in DMSO) were run in parallel. All compounds tested were dissolved and eventually further diluted in DMSO. In first instance, compounds were tested at a concentration of 10^−5M. […] In each test, the blank value was subtracted from both the control and the sample values. The control sample represented maximal PARP-1 enzyme activity. For each sample, the amount of cpm was expressed as a percentage of the mean cpm value of the controls. When appropriate, IC50-values (concentration of the drug, needed to reduce the PARP-1 enzyme activity to 50% of the control) were computed using linear interpolation between the experimental points just above and below the 50% level. Herein the effects of test compounds are expressed as pIC50 (the negative log value of the IC50-value). As a reference compound, 4-amino-1,8-naphthalimide was included to validate the filtration assay.

T1 sequence (P09874 whole entry): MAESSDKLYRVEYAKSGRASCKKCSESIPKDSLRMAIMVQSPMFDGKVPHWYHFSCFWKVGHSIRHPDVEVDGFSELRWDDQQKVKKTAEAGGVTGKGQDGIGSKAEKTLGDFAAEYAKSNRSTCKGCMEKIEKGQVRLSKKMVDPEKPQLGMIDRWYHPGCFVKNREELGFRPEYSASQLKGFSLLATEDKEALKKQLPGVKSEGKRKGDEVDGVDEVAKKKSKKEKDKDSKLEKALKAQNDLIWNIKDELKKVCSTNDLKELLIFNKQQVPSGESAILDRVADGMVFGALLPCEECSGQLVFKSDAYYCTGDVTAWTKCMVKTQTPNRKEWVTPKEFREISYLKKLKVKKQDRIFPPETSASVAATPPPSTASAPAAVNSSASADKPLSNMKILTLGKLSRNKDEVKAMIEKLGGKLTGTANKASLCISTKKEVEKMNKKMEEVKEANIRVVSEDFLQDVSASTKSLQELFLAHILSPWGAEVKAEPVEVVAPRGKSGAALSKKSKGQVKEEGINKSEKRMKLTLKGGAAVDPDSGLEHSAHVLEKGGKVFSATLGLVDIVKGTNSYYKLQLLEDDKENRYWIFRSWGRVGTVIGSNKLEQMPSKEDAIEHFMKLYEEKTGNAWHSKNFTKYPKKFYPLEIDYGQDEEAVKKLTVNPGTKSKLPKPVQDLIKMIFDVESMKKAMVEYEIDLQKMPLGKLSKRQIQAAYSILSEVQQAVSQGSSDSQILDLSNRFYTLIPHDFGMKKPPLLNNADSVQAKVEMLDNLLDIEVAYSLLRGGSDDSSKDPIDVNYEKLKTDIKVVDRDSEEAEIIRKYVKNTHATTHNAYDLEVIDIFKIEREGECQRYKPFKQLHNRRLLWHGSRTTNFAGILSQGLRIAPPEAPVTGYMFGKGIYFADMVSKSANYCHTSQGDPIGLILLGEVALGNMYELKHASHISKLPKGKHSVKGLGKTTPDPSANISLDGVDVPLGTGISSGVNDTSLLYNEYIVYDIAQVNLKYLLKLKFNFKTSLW

As to `CCc1cc2cc(C(c3ccc(Cl)cc3)N3CCC(NCCOC)CC3)ccc2[nH]c1=O` (stereo not shown) [Compound 86], the results for the IC50 on PARP-1 enzyme [1] and at PARP-1 enzyme [2] were 292 nM and 2240 nM, respectively.
For `CCc1cc2cc(C(c3cccc(C(F)(F)F)c3)N3CCC(NCCOC)CC3)ccc2[nH]c1=O` (stereo not shown) [Compound 87] the same measures were 589 nM and 4950 nM.
For `Cc1cc2cc(C(c3ccccc3)C3CCCN(C)C3)ccc2[nH]c1=O` (stereo not shown) [Compound 88] the same measures were 264 nM and 4070 nM.
For `Cc1cc2cc(C(CCN3CCCCC3)c3ccccc3)ccc2[nH]c1=O` (stereo not shown) [Compound 89] the same measures were 451 nM and 2680 nM.
Regarding `CCc1cc2cc(C(CCN(C)C)c3cccc(C(F)(F)F)c3)ccc2[nH]c1=O` (stereo not shown) [Compound 91], the results for the IC50 at PARP-1 enzyme [1] and at PARP-1 enzyme [2] were 187 nM and 828 nM, respectively.
In the case of `CCc1cc2cc(C(CCN(C)C)c3ccccc3)ccc2[nH]c1=O` (stereo not shown) [Compound 92], the IC50 at PARP-1 enzyme [1] is 105 nM; at PARP-1 enzyme [2], 1180 nM.
On the same counts, the results for `Cc1cc2cc(C(c3ccccc3)N3CCCCC3)ccc2[nH]c1=O` (stereo not shown) [Compound 93] are 508 nM and 2150 nM.
On the same counts, the results for `Cc1cc2cc(C(c3cccc(Cl)c3)n3ccnc3)ccc2[nH]c1=O` (stereo not shown) [Compound 94] are 665 nM and 3560 nM.
For `Cc1cc2cc(C(c3ccc(Cl)cc3)n3ccnc3)ccc2[nH]c1=O` (stereo not shown) [Compound 95] the same measures were 818 nM and 6350 nM.
Turning to `CCc1cc2cc(C(NC=O)c3ccccc3)ccc2[nH]c1=O` (stereo not shown) [Compound 96], the values for the IC50 at PARP-1 enzyme [1] and at PARP-1 enzyme [2] were 69.8 nM and 352 nM, respectively.
For `Cc1cccc(C(NC=O)c2ccc3[nH]c(=O)c(C)cc3c2)c1` (stereo not shown) [Compound 98] the same measures were 274 nM and 3830 nM.
For `Cc1cc2cc(C(NC=O)c3ccc4c(c3)OCO4)ccc2[nH]c1=O` (stereo not shown) [Compound 99], the IC50 on PARP-1 enzyme [1] was 289 nM; at PARP-1 enzyme [2] it was 1470 nM.
For `CCOC(=O)c1ccc(C(NC=O)c2ccc3[nH]c(=O)c(C)cc3c2)cc1` (stereo not shown) [Compound 100] the same measures were 502 nM and 3510 nM.
On the same counts, the results for `COc1cccc(C(NC=O)c2ccc3[nH]c(=O)c(C)cc3c2)c1` (stereo not shown) [Compound 101] are 773 nM and 2840 nM.
For `Cc1cc2cc(C(NC=O)c3ccc(F)cc3)ccc2[nH]c1=O` (stereo not shown) [Compound 102] the same measures were 366 nM and 1590 nM.
In the case of `Cc1cc2cc(CCC(NC=O)c3ccccc3)ccc2[nH]c1=O` (stereo not shown) [Compound 103], the IC50 on PARP-1 enzyme [1] was 902 nM; on PARP-1 enzyme [2] it was 7730 nM.
For `Cc1cc2cc(C(NC=O)c3cccc(Cl)c3)ccc2[nH]c1=O` (stereo not shown) [Compound 104] the same measures were 501 nM and 2380 nM.
Regarding `Cc1cc2cc(C(NC=O)c3ccc(Cl)cc3)ccc2[nH]c1=O` (stereo not shown) [Compound 105], the values for the IC50 on PARP-1 enzyme [1] and at PARP-1 enzyme [2] were 618 nM and 1470 nM, respectively.
On the same counts, the results for `Cc1cc2cc(C(NC=O)c3ccccc3)ccc2[nH]c1=O` (stereo not shown) [Compound 106] are 493 nM and 1680 nM.
On the same counts, the results for `COc1cccc(C(O)c2ccc3[nH]c(=O)c(C)cc3c2)c1` (stereo not shown) [Compound 107] are 841 nM and 10000 nM.
On the same counts, the results for `CCOC(=O)c1ccc(C(O)c2ccc3[nH]c(=O)c(C)cc3c2)cc1` (stereo not shown) [Compound 109] are 755 nM and 2320 nM.
For the molecule `CCc1cc2cc(C(O)c3ccccc3)ccc2[nH]c1=O` (stereo not shown) [Compound 110], the IC50 at PARP-1 enzyme [1] was 277 nM; at PARP-1 enzyme [2], 2580 nM.
On to `Cc1cc2cc(C(O)c3ccc4c(c3)OCO4)ccc2[nH]c1=O` (stereo not shown) [Compound 111], for which the IC50 is 611 nM at PARP-1 enzyme [1] and 4430 nM at PARP-1 enzyme [2].
On the same counts, the results for `C#CC(O)(c1ccccc1)c1ccc2[nH]c(=O)c(C)cc2c1` (stereo not shown) [Compound 112] are 689 nM and 2710 nM.
Consider `CCc1nc2cc(CC(=O)c3ccc(Cl)cc3)ccc2[nH]c1=O` [Compound 113], for which the IC50 was 556 nM at PARP-1 enzyme [1] and 5930 nM on PARP-1 enzyme [2].
With `CCc1nc2cc(CC(c3ccc(Cl)cc3)N3CCCCC3)ccc2[nH]c1=O` (stereo not shown) [Compound 114], the IC50 was 552 nM at PARP-1 enzyme [1] and 1580 nM at PARP-1 enzyme [2].
Turning to `CCc1nc2cc(C(c3cccc(F)c3)n3ccnc3)ccc2[nH]c1=O` (stereo not shown) [Compound 115], the IC50 at PARP-1 enzyme [1] was 818 nM; on PARP-1 enzyme [2], 3440 nM.
For `CCc1nc2cc(C(c3ccc(Cl)cc3)n3cnc(C)c3)ccc2[nH]c1=O` (stereo not shown) [Compound 122] the same measures were 877 nM and 2700 nM.
On the same counts, the results for `CCc1nc2cc(C(c3cccc(Cl)c3)n3ccnc3)ccc2[nH]c1=O` (stereo not shown) [Compound 123] are 612 nM and 3300 nM.
Consider `CCc1nc2cc(C(c3ccc(Cl)cc3)N3CCCCC3)ccc2[nH]c1=O` (stereo not shown) [Compound 124], for which the IC50 was 1570 nM at PARP-1 enzyme [1] and 1380 nM on PARP-1 enzyme [2].
On the same counts, the results for `CCc1nc2cc(C(c3ccc(F)cc3)n3ccnc3)ccc2[nH]c1=O` (stereo not shown) [Compound 125] are 711 nM and 5610 nM.
On the same counts, the results for `CCc1nc2cc(C(c3ccc(Cl)cc3)n3ccnc3)ccc2[nH]c1=O` (stereo not shown) [Compound 126] are 573 nM and 2250 nM.
